We go through four compounds from patent US20250214966A1, “Crystalline Salt Form Of A SHP2 Inhibitor” (Array BioPharma Inc., priority 2022, published 2025).

SMILES strings stand for the structures. Like-named read-outs stand apart in the source and are kept apart here. Where only a bound is given, the exact number is not on record here.

Common to all, as to type: physicochemical
A short description of series [1]: Solubility of salts in buffer systems at 37° C. (Table 14). The settings on record: 20 mg in 1 mL; for solubility at 18 h: thermodynamic from solid. Here is the method: The solubility (Table 14) was determined by adding 20 mg of salts (Examples 3 to 8) into 3 HPLC vials, to each vial, a magnetic stirrer bar was added along with 1 mL of the appropriate buffer system (pH 1.2 HCl, pH 4.5 sodium acetate, or pH 6.8 phosphate). The samples were agitated at 37° C. for […]. After 24 hours, the slurries were isolated by centrifugation filtration and isolated mother liquors were analyzed by HPLC.
HPLC method (Table 14): A Dionex Ultimate 3000 HPLC instrument was used with a Waters XSelect HSS T3 Column (100 angstrom, 4.6×150 mm, 5 μm). The column temperature was set to 20° C., the UV wavelength set to 254 nm, the injection volume was 10 μL, with a flow rate of 1.0 mL/min. 10 mM ammonium acetate adjusted to pH 4.8 was used as a mobile phase A, and acetonitrile was used as mobile phase B. The gradient method was set up to achieve 15% mobile phase B at 0 minutes, 95% mobile phase B at 17 minutes—held until 22 minutes, 15% mobile phase B at 22.1 minutes—held until 28 minutes.

Series [2] in a line: Dynamic vapor sorption of salts (Table 14). The settings on record: 25° C.; for DVS weight change: ramping 40-90% RH. The protocol:
DVS (Table 14): Approximately, 10-20 mg of sample was placed into a mesh vapor sorption balance pan and loaded into a DVS Intrinsic dynamic vapor sorption balance by Surface Measurement Systems. The sample was subjected to a ramping profile from 40-90% relative humidity (RH) at 10% increments, maintaining the sample at each step until a stable weight had been achieved (dm/dt 0.004%, minimum step length 30 minutes, maximum step length 500 minutes) at 25° C. After completion of the sorption cycle, the sample was dried using the same procedure to 0% RH and then a second sorption cycle back to 40% RH. Two cycles were performed. Theweight change during the sorption/desorption cycles were plotted, allowing for the hygroscopic nature of the sample to be determined. XRPD analysis was then carried out on any solid retained. […] The sample was subjected to a ramping profile from 40-90% relative humidity (RH) at 10% increments, maintaining the sample at each step until a stable weight had been achieved (dm/dt 0.004%, minimum step length 30 minutes, maximum step length 500 minutes) at 25° C. After completion of the sorption cycle, the sample was dried using the same procedure to 0% RH and then a second sorption cycle back to 40% RH. Two cycles were performed. The weight change during the sorption/desorption cycles were plotted, allowing for the hygroscopic nature of the sample to be determined. XRPD analysis was then carried out on any solid retained.

Series [3] can be described thus: TGA/DSC of salts (Table 14). The settings on record: 10° C./min. Here is the method: TGA/DSC (Table 14): Approximately, 5-10 mg of material was added into a pre-tared open aluminum pan and loaded into a TA Instruments Discovery SDT 650 Auto—Simultaneous DSC and held at room temperature. The sample was then heated at a rate of 10° C./min from 20° C. (ambient) to 400° C. during which time the change in sample weight was recorded along with the heat flow response (DSC). Nitrogen was used as the sample purge gas, at a flow rate of 200 cm3/min.
DSC (Table 14): Approximately, 1-5 mg of material was weighed into an aluminum DSC pan and sealed nonhermetically with an aluminum lid. The sample pan was then loaded into a TA Instruments Discovery DSC 2500 differential scanning calorimeter equipped with a RC90 cooler. The sample and reference were heated to 310° C. at a scan rate of 10° C./min and the resulting heat flow response monitored. The sample was re-cooled to 20° C. and then reheated again to 205° C. all at 10° C./min. Nitrogen was used as the purge gas, at a flow rate of 50 cm^3/min.

Where [4] appears, read: pH 1.2 HCl buffer, simulated gastric fluid, pH 1.2 HCl, read-out: Solubility pH 1.2 HCl.
The mark [5] stands for this setting: pH 4.5 sodium acetate buffer, aqueous buffer, pH 4.5 sodium acetate, read-out: Solubility pH 4.5 Sodium Acetate.
Setting [6] is: pH 6.8 phosphate buffer, aqueous buffer, pH 6.8 phosphate, read-out: Solubility Ph 6.8 Phosphate.

In the case of `Nc1nccc(Sc2cnc(N3CCC4(CC3)Cc3ccccc3[C@H]4N)nn2)c1Cl.O=P(O)(O)O` [Example 4, (S)-1′-(6-((2-Amino-3-chloropyridin-4-yl)thio)-1,2,4-triazin-3-yl)-1,3-dihydrospiro[indene-2,4′-piperidin]-1-amine phosphate (Pattern 1)], in series [1] (pH 1.2 HCl), the “Solubility pH 1.2 HCl (mg/mL)” value is >20 mg/mL. Further, the Solubility pH 4.5 Sodium Acetate in series [1] (pH 4.5 sodium acetate) amounted to 0.3 mg/mL. In addition, in series [1] (pH 6.8 phosphate), the “Solubility Ph 6.8 Phosphate” value is recorded as 9.3 mg/mL. Moreover, in series [2], the DVS hygroscopic nature result is recorded as “Hygroscopic” and the DVS weight change was determined as 6.3%. The “TGA/DSC Melt/degradation” value in series [3] came out at 100 °C.
For `Nc1nccc(Sc2cnc(N3CCC4(CC3)Cc3ccccc3[C@H]4N)nn2)c1Cl.O=P(O)(O)O` [Example 5, (S)-1′-(6-((2-Amino-3-chloropyridin-4-yl)thio)-1,2,4-triazin-3-yl)-1,3-dihydrospiro[indene-2,4′-piperidin]-1-amine phosphate (Pattern 2)], in series [1] (pH 1.2 HCl), the “Solubility pH 1.2 HCl (mg/mL)” value is on record as >20 mg/mL. For the same compound, in series [1] (pH 4.5 sodium acetate), the Solubility pH 4.5 Sodium Acetate stood at 0.4 mg/mL. Moreover, the “Solubility Ph 6.8 Phosphate” value in series [1] (pH 6.8 phosphate) is listed as 1.9 mg/mL. In addition, in series [2], the DVS hygroscopic nature result is on record as “Hygroscopic” and the DVS weight change is listed as 7.6%. Further, in series [3], the “TGA/DSC Melt/degradation” value worked out at 174 °C.
Turning to `Nc1nccc(Sc2cnc(N3CCC4(CC3)Cc3ccccc3[C@H]4N)nn2)c1Cl.O=C(O)/C=C/C(=O)O` [Example 6, (S)-1′-(6-((2-Amino-3-chloropyridin-4-yl)thio)-1,2,4-triazin-3-yl)-1,3-dihydrospiro[indene-2,4′-piperidin]-1-amine fumarate], the solubility at 18 h in series [1] (setting [4]) is > 20000 µg/mL; in series [1] (setting [5]), 200 µg/mL; in series [1] (setting [6]) it was 400 µg/mL. Besides, in series [2], the DVS hygroscopic nature result is given as “Hygroscopic”. Moreover, in series [2], the DVS weight change was found to be 2.1%. Also, the “TGA/DSC Melt/degradation” value in series [3] was 225.7 °C.
`Nc1nccc(Sc2cnc(N3CCC4(CC3)Cc3ccccc3[C@H]4N)nn2)c1Cl.O=C(O)C(O)C(O)C(=O)O` [Example 7, (S)-1′-(6-((2-Amino-3-chloropyridin-4-yl)thio)-1,2,4-triazin-3-yl)-1,3-dihydrospiro[indene-2,4′-piperidin]-1-amine tartrate]: the solubility at 18 h in series [1] (setting [4]) was > 20000 µg/mL; in series [1] (setting [5]) it was 400 µg/mL; in series [1] (setting [6]) it was 1200 µg/mL. For the same compound, the DVS hygroscopic nature result in series [2] was “Hygroscopic”. For the same compound, in series [2], the DVS weight change is 5.8%. Further, the “TGA/DSC Melt/degradation” value in series [3] was 187 °C.

For orientation: solubility means the concentration that dissolves in the medium under given conditions.
